Laboratory results: patent publication US20260263644A1, “USE OF POSITRON MYOCARDIAL FATTY ACID METABOLISM IMAGING AGENT AND POSITRON 18F-FDG MYOCARDIAL GLUCOSE IMAGING AGENT IN PET COMBINED IMAGING” (priority 2023, published 2026)

Tests used:
[1] = system: anterior wall myocardium with chronic myocardial infarction; assay: Combined 18F-FDG and XTR003 PET myocardial metabolic imaging under fasting in the chronic myocardial infarction pig model; assay type: in vivo, Bama miniature pig; details: for uptake in the myocardial infarction area (PET myocardial metabolic image): 18F-FDG 1mCi first
Protocol: Each experiment used a Bama miniature pig approximately one year old, and the experiment was repeated three times. Taking the second of the three experiments as an example: the piglet weighed approximately 10 kg. A constrictive ring was placed at the site of the left anterior descending coronary artery to gradually induce chronic myocardial infarction in the anterior wall myocardium. Four weeks later, for comparative purposes, a ^99mTc-Sestamibi SPECT myocardial perfusion imaging was performed in the morning (this imaging is the gold standard for assessing viable and scarred myocardium in the infarcted area and was used in this study as a reference for comparing PET imaging results). In the afternoon, a one-day protocol for combined ^18F-FDG and XTR003 PET imaging was performed (with at least 2-hour interval from the SPECT conducted in the morning, during which fasting was maintained). ^18F-FDG PET imaging was performed first, followed by XTR003 PET imaging. The injection doses of the above two agents were 1mCi and 2.5mCi, respectively. XTR003 was injected 1 hour after the ^18F-FDG injection, followed immediately by PET imaging. Each experiment used a Bama miniature pig about one year old, and the experiment was repeated three times. Taking the second of the three experiments as an example: the piglet weighed approximately 11 kg. A constriction ring was placed at the site of the left anterior descending coronary artery to gradually induce chronic myocardial infarction in the anterior wall myocardium. Three weeks later, for comparative purposes, a 99mTc-Sestamibi SPECT myocardial perfusion imaging was performed in the morning. In the afternoon, a one-day protocol combining ^18F-FDG and XTR003 PET imaging was performed, ^18F-FDG PET imaging was performed first, followed by XTR003 PET imaging. The injection doses of the above two agents were 1mCi and 3.1mCi, respectively. Among them, XTR003 was injected 1 hour after the ^18F-FDG injection, followed immediately by PET imaging. A disease animal model was constructed as described in Example 1. After myocardial perfusion imaging, “a one-day protocol combining ^18F-FDG PET and XTR003 PET imaging” was performed, wherein XTR003 was injected one hour after the injection of ^18F-FDG, followed immediately by PET imaging. The only difference between the Comparative Example and Example 1 is that the injection doses of the above two agents were 1 mCi and 0.25 mCi, respectively. The results of the combined ^18F-FDG and XTR003 PET imaging (also used the second experiment out of three replicates as an example) are shown in FIGS. 3a-3b. In the Figs.: An animal model of the disease was constructed as described in Example 1, differing only in the order of imaging; specifically, XTR003 PET imaging was performed first, followed by ^18F-FDG PET imaging. The injection doses of the two agents were 1 mCi and 3 mCi, respectively. In the Figs.: An animal model of the disease was constructed as described in Example 3. After myocardial perfusion, “a one-day protocol combining XTR003 PET and ^18F-FDG PET imaging” was performed, wherein ^18F-FDG was injected one hour after the injection of XTR003, followed immediately by PET imaging. The only difference between the Comparative Example and Example 3 was that the injection doses of the above two agents were 1 mCi and 0.25 mCi, respectively. In the Figs.: The disease animal model was constructed according to the description of Example 1. The only difference from Example 1 was that after the myocardial perfusion imaging, a “two-day protocol combining ^18F-FDG PET and XTR003 PET imaging” was performed instead of the “one-day protocol”. In the Figs.: An animal model of the disease was constructed as described in Example 1. After myocardial perfusion imaging, a “a one-day protocol combining ^18F-FDG PET and XTR003 PET imaging” was performed, wherein XTR003 was injected one hour after the injection of ^18F-FDG, followed immediately by PET imaging. […]

[2] = system: normal myocardium; assay: Separate PET imaging with a single imaging agent, without combination; assay type: in vivo, Bama miniature pig; details: Comparative Example 3; fasting; each agent administered separately, not in combination; FIGS. 7a, 7b
Protocol: Each experiment was performed using a Bama miniature pig of about one year old, and the experiment was repeated three times; taking the second experiment of the three experiments as an example: the piglet weighed about 10 kg, and the two imaging agents were administered separately for imaging rather than in combination. The results of separate PET imaging with ^18F-FDG and XTR003 are shown in FIGS. 7a and 7b, respectively.

CCCCCCCCC([18F])CCCCC1CC1CC(=O)O (stereo not shown) [XTR003]
image quality of myocardial metabolic images ([1]; Comparative Example 1, one-day protocol, 18F-FDG 1 mCi first, then XTR003 0.25 mCi, FIGS. 3a-3b): excessive image noise | image quality of myocardial metabolic images ([1]; Comparative Example 2, one-day protocol, XTR003 1 mCi first, then 18F-FDG 0.25 mCi, FIGS. 5a-5b): normal image quality | uptake in the myocardial infarction area (PET myocardial metabolic image) ([1]; Example 1, one-day protocol, XTR003 2.5mCi injected 1 hour later, FIGS. 1b-1c): moderate uptake | uptake in the myocardial infarction area (PET myocardial metabolic image) ([1]; Example 2, one-day protocol, XTR003 3.1mCi injected 1 hour later, FIGS. 2b-2c): no XTR003 uptake | image quality of myocardial metabolic images ([1]; Example 3, one-day protocol, XTR003 1 mCi first, then 18F-FDG 3 mCi, FIGS. 4a-4b): normal image quality | image quality of myocardial metabolic images ([1]; Example 4, two-day protocol, FIGS. 6a-6b): normal image quality | visibility of myocardial metabolic images [2]: can show normal image
